Experimental data: US10323037B2, “Aminopyridazinone compounds as protein kinase inhibitors” (Jiangsu Hengrui Medicine Co., Ltd., priority 2014, dated 2019)

System: TMD-8 cells
Assay: Cell proliferation assay (CellTiter-Glo), TMD-8
Type: cell-based
Settings: 5-day treatment; read-out: TMD8 cells growth IC50
Method: Cell proliferation assay: TMD-8 and SU-DHL-1 cells were maintained at 37° C. in a humidified atmosphere with 5% CO2 in the recommended medium and serum concentrations. For cell proliferation assay, cells were seeded in 96-well pates at a density of 5,000 to 10,000 cells per well and cultured overnight at 37° C. in recommended medium supplemented with 5-10% FBS. On the next day, the test articles at various concentrations or vehicle control (0.5% DMSO) were added into cell culture. After 5-day treatment, the growth of cells was assayed by the CellTiter-Glo® Luminestceaent Cell Viability Assay (Promega). IC50 values were calculated using GraphPad Prism by plotting the logarithm of the concentration versus percent inhibition of cell growth as compared with the vehicle control.

Structure (SMILES)	IC50
CN(C)C/C=C/C(=O)N1CCC(F)C(n2cc(-c3ccc(Oc4ccccc4)cc3)c3c(N)n[nH]c(=O)c32)C1 (stereo not drawn) [Example 45, 4-amino-1-[1-[(E)-4-(dimethylamino)but-2-enoyl]-4-fluoro-3-piperidyl]-3-(4-phenoxyphenyl)-6H-pyrrolo[2,3 d]pyridazin-7-one]	≤ 10 nM

Same assay, conditions: Homo sapiens, TMD8, 120 h; 5-day treatment; read-out: TMD8 cells growth IC50

Structure (SMILES)	IC50
C=CC(=O)N1CCC[C@@H](n2cc(-c3ccc(Oc4ccccc4)cc3F)c3c(N)n[nH]c(=O)c32)C1 [Example 76, (R)-1-(1-acryloylpiperidin-3-yl)-4-amino-3-(2-fluoro-4-phenoxyphenyl)-1H-pyrrolo[2,3-d]pyridazin-7(6H)-one]	≤ 10 nM
C=CC(=O)N1CCC(Cn2cc(-c3ccc(Oc4ccccc4)cc3)c3c(N)n[nH]c(=O)c32)C1 (stereo not drawn) [Example 8, 4-amino-3-(4-phenoxyphenyl)-1-[(1-prop-2-enoylpyrrolidin-3-yl)methyl]-6H-pyrrolo[2,3-d]pyridazin-7-one]	10 to 1000 nM
N#CN1CCCC(n2cc(-c3ccc(Oc4ccccc4F)cc3)c3c(N)n[nH]c(=O)c32)C1 (stereo not drawn) [Example 108, 3-(4-amino-3-(4-(2-fluorophenoxy)phenyl)-7-oxo-6,7-dihydro-1H-pyrrolo[2,3-d]pyridazin-1-yl)piperidine-1-carbonitrile]	≤ 10 nM
CN(C)CC#CC(=O)N1CC[C@@H](n2cc(-c3ccc(Oc4ccccc4F)cc3)c3c(N)n[nH]c(=O)c32)C1 [Example 99, (R)-4-amino-1-(1-(4-(dimethylamino)but-2-ynoyl)pyrrolidin-3-yl)-3-(4-(2-fluorophenoxy)phenyl)-1H-pyrrolo[2,3-d]pyridazin-7(6H)-one]	10 to 1000 nM
C=CC(=O)N1CCCC(n2cc(-c3ccc(Oc4ccccc4F)cc3)c3c(N)n[nH]c(=O)c32)C1 (stereo not drawn) [Example 55, 1-(1-acryloylpiperidin-3-yl)-4-amino-3-(4-(2-fluorophenoxy)phenyl)-1H-pyrrolo[2,3-d]pyridazin-7(6H)-one]	≤ 10 nM
CN(C)C/C=C/C(=O)N1CCC[C@@H](n2cc(-c3ccc(Oc4ccccc4Cl)cc3)c3c(N)n[nH]c(=O)c32)C1 [Example 71, 4-amino-3-[4-(2-chlorophenoxy)phenyl]-1-[(3R)-1-[(E)-4-(dimethylamino)but-2-enoyl]-3-piperidyl]-6H-pyrrolo[2,3-d]pyridazin-7-one]	≤ 10 nM
C=CC(=O)N1CCC[C@@H](n2cc(-c3ccc(Oc4c(F)cccc4F)cc3)c3c(N)n[nH]c(=O)c32)C1 [Example 58, (R)-1-(1-acryloylpiperidin-3-yl)-4-amino-3-(4-(2,6-difluorophenoxy)phenyl)-1H-pyrrolo[2,3-d]pyridazin-7(6H)-one]	≤ 10 nM
CC#CC(=O)N1C[C@H](OC)[C@@H](n2cc(-c3ccc(Oc4ccccc4F)cc3)c3c(N)n[nH]c(=O)c32)C1 [Example 98, 4-amino-1-((3S,4S)-1-(but-2-ynoyl)-4-methoxypyrrolidin-3-yl)-3-(4-(2-fluorophenoxy)phenyl)-1H-pyrrolo[2,3-d]pyridazin-7(6H)-one and Enantiomer]	10 to 1000 nM
CN(C)C/C=C/C(=O)N1CCCC(n2cc(-c3ccc(Oc4cccc(Cl)c4)cc3)c3c(N)n[nH]c(=O)c32)C1 (stereo not drawn) [Example 67, 4-amino-3-[4-(3-chlorophenoxy)phenyl]-1-[1-[(E)-4-(dimethylamino)but-2-enoyl]-3-piperidyl]-6H-pyrrolo[2,3-d]pyridazin-7-one]	10 to 1000 nM
C=CC(=O)N1CC[C@@H](n2cc(-c3ccc(Oc4ccccc4F)cc3)c3c(N)n[nH]c(=O)c32)C1 [Example 106, (R)-1-(1-acryloylpyrrolidin-3-yl)-4-amino-3-(4-(2-fluorophenoxy)phenyl)-1H-pyrrolo[2,3-d]pyridazin-7(6H)-one]	≤ 10 nM
Nc1n[nH]c(=O)c2c1c(-c1ccc(Oc3ccccc3)cc1)cn2[C@@H]1CCCN(C(=O)/C=C/CN2CCC2)C1 [Example 33, 4-amino-1-[(3R)-1-[(E)-4-(azetidin-1-yl)but-2-enoyl]-3-piperidyl]-3-(4-phenoxyphenyl)-6H-pyrrolo[2,3-d]pyridazin-7-one]	≤ 10 nM
